Measured values: PMC11484942, “Rumicidins are a family of mammalian host-defense peptides plugging the 70S ribosome exit tunnel” (Nature Communications, 2024)

Columns and labels:
PBMC = assay: Cytokine response, multiplex xMAP; type: cell-based, human; settings: 2 µM peptide, 24 h
Description: The acute monocytic leukemia THP-1 cell line (ATCC TIB-202) was cultured in the complete RPMI 1640 medium (Invitrogen) containing 10% FBS, 1× antibiotic-antimycotic solution (Invitrogen), and 0.05 mM β-mercaptoethanol, in the CO2-incubator (5% CO2, 37 °C). THP-1 cells were differentiated into proinflammatory macrophages (MΦ1) according to the previously reported protocol. Primary peripheral blood mononuclear cells (PBMC) collected from a healthy donor were purchased from ATCC (PCS-800-011), thawed, and seeded into a 96-well plate one day prior to the experiment at a density of 2 × 10^5 cells/well. Two different cell subpopulations (monocytes and T-/B-/NK-lymphocytes) were isolated from PBMC based on their adherence ability. Macrophages MΦ1 were washed out and seeded into 96-well plates at a density of 10^5 cells/well one day prior to the experiment. The next day, medium in each well was replaced by a fresh complete RPMI 1640 medium with or without 2 μM of a tested peptide (rumicidin-1 or LL-37). Cell cultures were kept in a CO2-incubator (5% CO2, 37 °C) for 24 h. Culture supernatants were collected 24 h later and stored at −70 °C degrees less than one week prior to the assessment of analytes. 26 analytes were measured at a protein level by multiplex xMAP technology using the MILLIPLEX MAP Human Cytokine/Chemokine Magnetic Bead Immunology Panel kit (HCYTOMAG-60K-27, Merck): eotaxin-1/CCL11, TGFα, GM-CSF, IFNα2, IFNγ, IL-10, IL-12p40, IL-12p70, IL-15, sCD40L, IL-17A, IL-1RA, IL-1α, IL-9, IL-1β, IL-2, IL-3, IL-4, IL-5, IL-6, IL-7, IL-8/CXCL8, IP-10/CXCL10, RANTES/CCL5, TNFα, TNFβ. Multiplex-based assay read-out was performed using the MAGPIX system (Merck) with the xPONENT 4.2 software (Merck) in accordance with the manufacturer’s instruction with overnight incubation of the samples with primary antibodies. The final analysis was carried out with the MILLIPLEX Analyst v5.1 software (Merck). Measurements were performed twice for each sample. The release of the analytes in control and experimental samples were compared by unpaired two-sample t-test using GraphPad Prism v.8.0.1. The p values ≤ 0.05 were considered significant.

Caco-2 cells = assay: Cytokine response, multiplex xMAP; type: cell-based, human; settings: 2 µM peptide, 24 h
[1] = system: E. coli 1057 R2 (rpoS^Q3stop, macB^N470D); settings: MHB + 0.9% NaCl
Method in brief: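 Broth microdilution (CLSI-based) used 10^6 CFU/mL mid-log cells in MHB with or without added NaCl, and peptides serially diluted in 0.1% BSA at 37 °C. Resistance induction used daily serial passage from sub-MIC wells, followed by 3 drug-free passages before the final MIC.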

E. coli 1057 WT = assay: microbe, parasite or virus in culture; type: cell-based, Escherichia coli; settings: MHB + 0.9% NaCl
Description: Minimum inhibitory concentrations (MIC) were determined by broth microdilution assay based on Clinical and Laboratory Standards Institute (CLSI) guidelines using BSA in the growth medium to minimize AMP nonspecific adsorption[49]. Bacterial test cultures were grown in the Mueller-Hinton broth (MHB, Sigma) at 37 °C to mid-log phase and then diluted with the 2× MH medium supplemented with 1.8% NaCl (or without salt) so that to reach a final cell concentration of 10^6 CFU/mL. 50 µL of the obtained bacterial suspension were added to aliquots of 50 µL of the peptide solutions serially diluted with sterilized 0.1% bovine serum albumin (BSA) in 96-well flat-bottom polystyrene microplates (Eppendorf #0030730011). […] To verify MIC values, the respiratory activity of the bacteria was determined. Briefly, 5 µL of 0.5 mg/mL resazurin (Sigma) was added to the wells after 24 h (or after 48 h for M. smegmatis) of incubation, and the plate was incubated for additional 3 h. In some cases, MICs were determined in the Lysogeny Broth (LB) or Middlebrook 7H9 medium. The reduction of resazurin to resorufin was recorded. […] The results were expressed as the median values determined based on at least three independent experiments performed in triplicate.

`CC[C@H](C)[C@H](NC(=O)[C@H](CCCCN)NC(=O)[C@H](CCC(=O)O)NC(=O)[C@H](CCCCN)NC(=O)[C@H](CO)NC(=O)[C@H](CCCCN)NC(=O)[C@H](CCCNC(=N)N)NC(=O)[C@H](Cc1ccccc1)NC(=O)[C@H](Cc1ccccc1)NC(=O)[C@H](CC(=O)O)NC(=O)CNC(=O)[C@H](CC(C)C)NC(=O)[C@@H](N)CC(C)C)C(=O)NCC(=O)N[C@@H](CCCCN)C(=O)N[C@@H](CCC(=O)O)C(=O)N[C@@H](Cc1ccccc1)C(=O)N[C@@H](CCCCN)C(=O)N[C@@H](CCCNC(=N)N)C(=O)N[C@H](C(=O)N[C@H](C(=O)N[C@@H](CCC(N)=O)C(=O)N[C@@H](CCCNC(=N)N)C(=O)N[C@H](C(=O)N[C@@H](CCCCN)C(=O)N[C@@H](CC(=O)O)C(=O)N[C@@H](Cc1ccccc1)C(=O)N[C@@H](CC(C)C)C(=O)N[C@@H](CCCNC(=N)N)C(=O)N[C@@H](CC(N)=O)C(=O)N[C@@H](CC(C)C)C(=O)N[C@H](C(=O)N1CCC[C@H]1C(=O)N[C@@H](CCCNC(=N)N)C(=O)N[C@H](C(=O)N[C@@H](CCC(=O)O)C(=O)N[C@@H](CO)C(=O)O)[C@@H](C)O)C(C)C)[C@@H](C)CC)C(C)C)[C@@H](C)CC` [LL-37] was tested. Which GM-CSF (PBMC) did it give?
Its GM-CSF is 0,66 pg/ml.

And the IFNa2 (PBMC)?
The IFNa2 was 3,72 pg/ml.

And the IFNg (PBMC)?
Its IFNg is < 1.31 pg/mL.

What about the IL-1RA (PBMC) of the same molecule?
Its IL-1RA is 62,83 pg/ml.

What about the IL-1a (PBMC) of the same molecule?
Its IL-1a is < 1.13 pg/mL.

What about the IL-1b (PBMC) of the same molecule?
The IL-1b was < 2.88 pg/mL.

What about the IL-2 (PBMC) of the same molecule?
Its IL-2 is < 2.73 pg/mL.

And the IL-3 (PBMC)?
The IL-3 was < 3.02 pg/mL.

What about the IL-4 (PBMC) of the same molecule?
The IL-4 was 38,61 pg/ml.

What about the IL-5 (PBMC) of the same molecule?
Its IL-5 is < 2.74 pg/mL.

What about the IL-6 (PBMC) of the same molecule?
Its IL-6 is < 2.42 pg/mL.

What about the IL-7 (PBMC) of the same molecule?
Its IL-7 is < 2.06 pg/mL.

And the IL-8 (PBMC)?
The IL-8 was 1591 pg/mL.

And the IL-9 (PBMC)?
Its IL-9 is < 3.08 pg/mL.

What about the IL-10 (PBMC) of the same molecule?
Its IL-10 is < 1.47 pg/mL.

And the IL-12p40 (PBMC)?
The IL-12p40 was < 3.69 pg/mL.

And the IL-12p70 (PBMC)?
Its IL-12p70 is 0,29 pg/ml.

And the IL-15 (PBMC)?
Its IL-15 is < 2.08 pg/mL.

And the IL-17A (PBMC)?
The IL-17A was < 0.94 pg/mL.

And the IP-10 (PBMC)?
The IP-10 was 2236 pg/mL.

And the RANTES (PBMC)?
The RANTES was 262,49 pg/ml.

And the TGF-a (PBMC)?
The TGF-a was < 2.64 pg/mL.

What about the TNFa (PBMC) of the same molecule?
The TNFa was 15,91 pg/ml.

What about the TNFb (PBMC) of the same molecule?
Its TNFb is < 2.85 pg/mL.

What about the sCD40L (PBMC) of the same molecule?
Its sCD40L is 2,84 pg/ml.

What about the Eotaxin (PBMC; supernatant) of the same molecule?
The Eotaxin was 3,21 pg/ml.

What about the Eotaxin (Caco-2 cells) of the same molecule?
The Eotaxin was < 2.04 pg/mL.

And the GM-CSF (Caco-2 cells)?
Its GM-CSF is 0,45 pg/ml.

And the IFNa2 (Caco-2 cells)?
The IFNa2 was 3,72 pg/ml.

And the IFNg (Caco-2 cells)?
Its IFNg is < 1.31 pg/mL.

And the IL-1RA (Caco-2 cells)?
Its IL-1RA is < 2.66 pg/mL.

What about the IL-1a (Caco-2 cells) of the same molecule?
The IL-1a was < 1.13 pg/mL.

And the IL-1b (Caco-2 cells)?
The IL-1b was < 2.88 pg/mL.

And the IL-2 (Caco-2 cells)?
Its IL-2 is < 2.73 pg/mL.

And the IL-3 (Caco-2 cells)?
The IL-3 was < 3.02 pg/mL.

What about the IL-4 (Caco-2 cells) of the same molecule?
The IL-4 was 43,73 pg/ml.

What about the IL-5 (Caco-2 cells) of the same molecule?
Its IL-5 is < 2.74 pg/mL.

And the IL-6 (Caco-2 cells)?
Its IL-6 is < 2.42 pg/mL.

And the IL-7 (Caco-2 cells)?
Its IL-7 is < 2.06 pg/mL.

And the IL-8 (Caco-2 cells)?
Its IL-8 is 3,19 pg/ml.

What about the IL-9 (Caco-2 cells) of the same molecule?
Its IL-9 is < 3.08 pg/mL.

What about the IL-10 (Caco-2 cells) of the same molecule?
Its IL-10 is < 1.47 pg/mL.

What about the IL-12p40 (Caco-2 cells) of the same molecule?
The IL-12p40 was < 3.69 pg/mL.

What about the IL-12p70 (Caco-2 cells) of the same molecule?
The IL-12p70 was 0,29 pg/ml.

And the IL-15 (Caco-2 cells)?
The IL-15 was < 2.08 pg/mL.

And the IL-17A (Caco-2 cells)?
Its IL-17A is < 0.94 pg/mL.

And the IP-10 (Caco-2 cells)?
Its IP-10 is 114,78 pg/ml.

What about the RANTES (Caco-2 cells) of the same molecule?
Its RANTES is 1050 pg/mL.

And the TGF-a (Caco-2 cells)?
Its TGF-a is < 2.64 pg/mL.

What about the TNFa (Caco-2 cells) of the same molecule?
The TNFa was < 2.85 pg/mL.

What about the TNFb (Caco-2 cells) of the same molecule?
Its TNFb is < 2.85 pg/mL.

And the sCD40L (Caco-2 cells)?
Its sCD40L is 2,12 pg/ml.

What about the MIC [1] of the same molecule?
Its MIC is 2 µM.

And the MIC (E. coli 1057 WT)?
Its MIC is 2 µM.
